From DBAASP
Converted amounts (≈) assume the structure as drawn. “And” between values parts separate entries of the source, which are not always exact repeats. Equal entries are not always repeated. One block for each compound: values may come before it.

Assays:
Assay in all cases: ≥ marks a high value that may be exact or a test limit, other limits are often not marked, values filed in µg/mL are converted to µM
[1] = system: Escherichia coli SPE 001
[2] = system: Staphylococcus aureus SPM 101
[3] = system: Escherichia coli DSM 1103
[4] = system: Klebsiella pneumoniae DSM 681
[5] = system: Pseudomonas aeruginosa DSM 1128
[6] = system: Staphylococcus aureus ATCC 25923
[7] = system: Streptococcus pneumoniae DSM 11865
[8] = system: Alternaria alternata
[9] = system: Botrytis cinerea
[10] = system: Cladosporium herbarum
[11] = system: Clavibacter michiganensis subsp. michiganensis DSM 46294
[12] = system: Pectobacterium carotovorum subsp. carotovorum DSM 30168
[13] = system: Pseudomonas corrugata DSM 7228
[14] = system: Pseudomonas syringae pv. syringae DSM 10604
[15] = system: Pseudomonas syringae pv. tomato DC3000
[16] = system: Staphylococcus aureus 90857
[17] = system: Xanthomonas vesicatoria DSM 50861
[18] = system: Bacillus subtilis MTCC 14416
[19] = system: Enterococcus faecalis ATCC 29212
[20] = system: Escherichia coli MG1655
[21] = system: Staphylococcus aureus ATCC 43300
[22] = system: Staphylococcus aureus MTCC 9542
[23] = system: Vibrio cholerae
[24] = system: Methylobacterium sp.
[25] = system: Sinorhizobium meliloti USDA 1002
[26] = system: Xanthomonas citri
[27] = system: Bacillus subtilis KCTC 3038
[28] = system: Enterococcus casseliflavus
[29] = system: Enterococcus faecium
[30] = system: Enterococcus gallinarum
[31] = system: Escherichia coli ATCC 27325
[32] = system: Saccharomyces cerevisiae ATCC 44774
[33] = system: Salmonella typhimurium KCTC 2370
[34] = system: Staphylococcus aureus

Structure (SMILES): CC(C)C[C@H](NC(=O)[C@H](CCCCN)NC(=O)[C@H](CC(C)C)NC(=O)[C@H](CC(C)C)NC(=O)[C@H](CC(C)C)NC(=O)[C@H](CC(C)C)NC(=O)[C@H](CCCCN)NC(=O)[C@H](CC(C)C)NC(=O)[C@@H](N)CCCCN)C(=O)N[C@@H](CCCCN)C(N)=O [KLKLLLLKLK]
MIC [1]: 26.5 µM (≈ 32 µg/mL) | MIC [2]: 1.65 µM (≈ 2 µg/mL)

Structure (SMILES): CC(C)C[C@H](NC(=O)[C@@H](NC(=O)[C@H](C)NC(=O)[C@H](Cc1c[nH]c2ccccc12)NC(=O)[C@H](CCCN=C(N)N)NC(=O)CNC(=O)CNC(=O)[C@H](CCCN=C(N)N)NC(=O)[C@@H](NC(=O)[C@H](CCCN=C(N)N)NC(=O)[C@H](Cc1c[nH]c2ccccc12)NC(=O)[C@H](Cc1ccc(O)cc1)NC(=O)[C@H](Cc1ccc(O)cc1)NC(=O)[C@H](CCCCN)NC(=O)[C@H](CCC(N)=O)NC(=O)[C@@H](N)CC(C)C)C(C)C)C(C)C)C(=O)N[C@@H](CO)C(=O)O [LQKYYWRVRGGRWAVLS]
MIC [3]: ≥ 140 µM | MIC [4]: ≥ 140 µM | MIC [5]: ≥ 140 µM | MIC [6]: 70.1 µM (≈ 150 µg/mL) | MIC [7]: ≥ 140 µM

Structure (SMILES): CC[C@H](C)[C@H](NC(=O)[C@H](C)NC(=O)[C@H](CS)NC(=O)[C@H](Cc1ccccc1)NC(=O)[C@@H](NC(=O)[C@H](CCCCN)NC(=O)[C@@H]1CCCN1C(=O)[C@H](CC(C)C)NC(=O)[C@H](Cc1ccccc1)NC(=O)[C@H](CCCCN)NC(=O)[C@H](C)NC(=O)[C@H](C)NC(=O)[C@H](CCSC)NC(=O)CNC(=O)[C@H](C)NC(=O)[C@@H](NC(=O)[C@H](Cc1ccccc1)NC(=O)[C@@H]1CCCN1C(=O)[C@H](CC(C)C)NC(=O)[C@@H](N)Cc1ccccc1)[C@@H](C)CC)[C@@H](C)CC)C(=O)N[C@@H](CO)C(=O)N[C@@H](CCCCN)C(=O)N[C@@H](CCCCN)C(N)=O [FLPFIAGMAAKFLPKIFCAISKK]
MIC [18]: 9.83 µM (≈ 25 µg/mL) | MIC [19]: 9.83 µM (≈ 25 µg/mL) | MIC [20]: 7.87 µM (≈ 20 µg/mL) | MIC [21]: 2.46 µM (≈ 6.25 µg/mL) | MIC [22]: 9.83 µM (≈ 25 µg/mL) | MIC [23]: 9.83 µM (≈ 25 µg/mL)

Structure (SMILES): CC[C@H](C)[C@H](NC(=O)[C@H](C)NC(=O)CNC(=O)[C@H](Cc1ccccc1)NC(=O)[C@@H](NC(=O)[C@@H](N)CCCCN)[C@@H](C)CC)C(=O)N[C@@H](Cc1c[nH]c2ccccc12)C(=O)N1CCC[C@H]1C(=O)N[C@@H](CC(C)C)C(=O)N[C@@H](C)C(=O)N[C@@H](CC(C)C)C(=O)NCC(=O)N[C@@H](C)C(=O)N[C@@H](CC(C)C)C(=O)N[C@@H](CCCCN)C(=O)N[C@@H](CC(N)=O)C(=O)N[C@@H](CC(C)C)C(=O)N[C@H](C(=O)N[C@@H](CCCCN)C(=O)O)[C@@H](C)CC [KIFGAIWPLALGALKNLIK]
MIC [24]: 4 µM (≈ 8.27 µg/mL) | MIC [25]: 4 µM (≈ 8.27 µg/mL) | MIC [26]: 2 µM (≈ 4.13 µg/mL)

Now from value to compound:

MIC [8]: ≥ 64.3 µM | MIC [9]: ≥ 64.3 µM | MIC [10]: 6.43 µM (≈ 9.99 µg/mL) | MIC [11]: 6.43 µM (≈ 9.99 µg/mL) | MIC [12]: 12.9 µM (≈ 20 µg/mL) | MIC [13]: 12.9 µM (≈ 20 µg/mL) | MIC [14]: 6.43 µM (≈ 9.99 µg/mL) | MIC [15]: 6.43 µM (≈ 9.99 µg/mL) | MIC [16]: 1.5 µM (≈ 2.33 µg/mL) | MIC [17]: 3.21 µM (≈ 5 µg/mL)
Structure (SMILES): CC[C@H](C)[C@H](NC(=O)[C@H](CCCCN)NC(=O)[C@H](CCCCN)NC(=O)[C@H](CC(C)C)NC(=O)[C@H](Cc1ccccc1)NC(=O)[C@H](CCCN=C(N)N)NC(=O)[C@@H](N)CC(C)C)C(=O)N[C@@H](CC(C)C)C(=O)N[C@@H](CCCCN)C(=O)N[C@@H](Cc1cnc[nH]1)C(=O)N[C@@H](CC(C)C)C(=O)N[C@@H](Cc1ccccc1)C(N)=O [LRFLKKILKHLF]

MIC [27]: 8.94 µM (≈ 16 µg/mL) | MIC [28]: 1.12 µM (≈ 2 µg/mL) | MIC [19]: 4.47 µM (≈ 8 µg/mL) | MIC [29]: 2.23 µM (≈ 4 µg/mL) | MIC [30]: ≥ 35.8 µM | MIC [31]: 17.9 µM and ≥ 35.8 µM | MIC [32]: 1.12 µM (≈ 2 µg/mL) | MIC [33]: ≥ 35.8 µM | MIC [34]: > 35.8 µM
Structure (SMILES): CC(C)[C@H](NC(=O)[C@H](CCCCN)NC(=O)[C@H](CCC(N)=O)NC(=O)[C@H](CCCCN)NC(=O)[C@@H](NC(=O)[C@@H](NC(=O)[C@H](CCC(N)=O)NC(=O)[C@@H](NC(=O)[C@@H](NC(=O)[C@@H]1CCCN1C(=O)[C@H](CCCN=C(N)N)NC(=O)[C@@H](NC(=O)[C@@H](NC(=O)[C@@H](N)CCCN=C(N)N)C(C)C)C(C)C)C(C)C)C(C)C)C(C)C)C(C)C)C(=O)N[C@@H](CCCN=C(N)N)C(=O)O [RVVRPVVQVVKQKVR]
